# In paper PMC5449191 (Nature plants, 2016):
# Assays:
# CsACT = CsACT (Cucumis sativus, UniProt A0A097IYL7); assay: acetyltransferase assay, LC-MS of product; format: biochemical; conditions: 400 μM acetyl-CoA, 400 μM substrate, pH 7.5, 31°C
# CmACT = CmACT (Cucumis melo, UniProt A0A1S3CAV7); assay: acetyltransferase assay, LC-MS of product; format: biochemical; conditions: 400 μM acetyl-CoA, 400 μM substrate, pH 7.5, 31°C
SMILES,"acetyltransferase assay, LC-MS of product (CsACT)","acetyltransferase assay, LC-MS of product (CmACT)","acetyltransferase assay, LC-MS of product (CmACT; product CuB)"
CC(C)(O)/C=C/C(=O)[C@](C)(O)[C@H]1[C@H](O)C[C@@]2(C)[C@@H]3CC=C4[C@@H](CC[C@H](O)C4(C)C)[C@]3(CO)C(=O)C[C@]12C [deacetyl CuC],"acylate a wide range of substrates (e.g., CuD, CuI, and deacetyl CuC)",–,–
CC(C)(O)/C=C/C(=O)[C@](C)(O)[C@H]1[C@H](O)C[C@@]2(C)[C@@H]3CC=C4[C@@H](C=C(O)C(=O)C4(C)C)[C@]3(C)C(=O)C[C@]12C [CuI],–,"acylate a wide range of substrates (e.g., CuD, CuI, and deacetyl CuC)",–
CC(C)(O)/C=C/C(=O)[C@](C)(O)[C@H]1[C@H](O)C[C@@]2(C)[C@@H]3CC=C4[C@@H](C[C@H](O)C(=O)C4(C)C)[C@]3(C)C(=O)C[C@]12C [CuD],"acylate a wide range of substrates (e.g., CuD, CuI, and deacetyl CuC)",–,able to acetylate the cucurbitacin precursors CuD and CuI
